Reference: ChEMBL document CHEMBL3994575, “Helixconstraints and amino acid substitution in GLP-1 increase cAMP and insulin secretion but not beta-arrestin 2 signaling” (Eur J Med Chem, 2017)
Positions of bridges follow the written chain, without caps; N, C: chain ends. Residues, ends and D or L forms follow the SMILES beside them.

Experiments:
[1] = target: T1, Glucagon-like peptide 1 receptor (Homo sapiens, UniProt P43220); assay: Agonist activity at human GLP1R expressed in CHO cells assessed as cAMP accumulation incubated for 30 mins by LANCE assay; assay type: functional, cell-based
[2] = target: T1, Glucagon-like peptide 1 receptor; assay: Agonist activity at human GLP1R expressed in CHOK1 cells assessed as induction of beta-galactosidase-tagged beta-arrestin2 recruitment incubated for 90 mins by PathHunter enzyme complementation assay; assay type: cell-based
[3] = target: T1, Glucagon-like peptide 1 receptor; assay: Displacement of [125I]-GLP (7 to 36 residues) from human GLP1R expressed in CHO cell membranes incubated for 30 mins measured after 10 hrs by scintillation proximity assay

T1 sequence (P43220 whole entry): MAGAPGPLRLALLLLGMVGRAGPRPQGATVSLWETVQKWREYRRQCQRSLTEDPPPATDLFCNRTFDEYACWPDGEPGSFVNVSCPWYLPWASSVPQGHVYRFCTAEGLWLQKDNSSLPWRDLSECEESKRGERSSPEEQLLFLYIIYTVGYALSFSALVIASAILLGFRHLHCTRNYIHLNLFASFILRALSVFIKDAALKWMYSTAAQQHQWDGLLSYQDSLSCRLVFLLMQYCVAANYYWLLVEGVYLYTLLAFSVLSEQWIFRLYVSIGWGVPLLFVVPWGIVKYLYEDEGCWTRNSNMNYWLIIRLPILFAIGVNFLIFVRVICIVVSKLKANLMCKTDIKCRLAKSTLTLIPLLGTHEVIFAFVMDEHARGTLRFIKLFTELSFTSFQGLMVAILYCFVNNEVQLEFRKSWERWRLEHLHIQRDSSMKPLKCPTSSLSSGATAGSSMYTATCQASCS

With CC[C@H](C)[C@H](NC(=O)[C@H](Cc1ccccc1)NC(=O)[C@H](CCC(=O)O)NC(=O)[C@H](CCCCN)NC(=O)[C@H](C)NC(=O)[C@H](C)NC(=O)[C@H](CCC(N)=O)NC(=O)CNC(=O)[C@H](CCC(=O)O)NC(=O)[C@H](CC(C)C)NC(=O)[C@H](Cc1ccc(O)cc1)NC(=O)[C@H](CO)NC(=O)[C@H](CO)NC(=O)[C@@H](NC(=O)[C@H](CC(=O)O)NC(=O)[C@H](CO)NC(=O)[C@@H](NC(=O)[C@H](Cc1ccccc1)NC(=O)[C@@H](NC(=O)CNC(=O)[C@@H]1CSCC(=O)N[C@@H](Cc2cnc[nH]2)C(=O)N[C@@H](C)C(=O)N1)[C@@H](C)O)[C@@H](C)O)C(C)C)C(=O)N[C@@H](C)C(=O)N[C@@H](Cc1c[nH]c2ccccc12)C(=O)N[C@@H](CC(C)C)C(=O)N[C@H](C(=O)N[C@@H](CCCCN)C(=O)NCC(=O)N[C@@H](CCCNC(=N)N)C(=O)NCC(N)=O)C(C)C the EC50 [1] was 300 nM and the EC50 [2] was greater than 10000 nM.
CC[C@H](C)[C@H](NC(=O)[C@H](Cc1ccccc1)NC(=O)[C@H](CCC(=O)O)NC(=O)[C@H](CCCCN)NC(=O)[C@H](C)NC(=O)[C@H](C)NC(=O)[C@H](CCC(N)=O)NC(=O)CNC(=O)[C@H](CCC(=O)O)NC(=O)[C@H](CC(C)C)NC(=O)[C@H](Cc1ccc(O)cc1)NC(=O)[C@H](CO)NC(=O)[C@H](CO)NC(=O)[C@@H](NC(=O)[C@H](CC(=O)O)NC(=O)[C@H](CO)NC(=O)[C@@H](NC(=O)[C@H](Cc1ccccc1)NC(=O)[C@@H]1CSC(=O)CN[C@@H](Cc2cnc[nH]2)C(=O)N[C@@H](C)C(=O)N[C@@H](CCC(=O)O)C(=O)NCC(=O)N1)[C@@H](C)O)C(C)C)C(=O)N[C@@H](C)C(=O)N[C@@H](Cc1c[nH]c2ccccc12)C(=O)N[C@@H](CC(C)C)C(=O)N[C@H](C(=O)N[C@@H](CCCCN)C(=O)NCC(=O)N[C@@H](CCCNC(=N)N)C(=O)NCC(N)=O)C(C)C was tested, and the EC50 [1] was greater than 10000 nM, the EC50 [2] was greater than 10000 nM and the Ki [3] was greater than 50 nM.
With CC[C@H](C)[C@H](NC(=O)[C@H](Cc1ccccc1)NC(=O)[C@H](CCC(=O)O)NC(=O)[C@H](CCCCN)NC(=O)[C@H](C)NC(=O)[C@H](C)NC(=O)[C@H](CCC(N)=O)NC(=O)CNC(=O)[C@H](CCC(=O)O)NC(=O)[C@@H]1CC(=O)NCCCC[C@H](NC(=O)[C@H](CC(=O)O)NC(=O)[C@H](CO)NC(=O)[C@@H](NC(=O)[C@H](Cc2ccccc2)NC(=O)[C@@H](NC(=O)CNC(=O)[C@H](CCC(=O)O)NC(=O)[C@H](C)NC(=O)[C@@H](N)Cc2cnc[nH]2)[C@@H](C)O)[C@@H](C)O)C(=O)N[C@@H](CO)C(=O)N[C@@H](CO)C(=O)N[C@@H](Cc2ccc(O)cc2)C(=O)N1)C(=O)N[C@H]1CCCCNC(=O)C[C@@H](C(=O)NCC(=O)N[C@@H](CCCNC(=N)N)C(=O)NCC(N)=O)NC(=O)[C@H](C(C)C)NC(=O)[C@H](CC(C)C)NC(=O)[C@H](Cc2c[nH]c3ccccc23)NC1=O (H-HAEGTFTSDKSSYDEGQAAKEFIKWLVDGRG-NH2; lactam 10-14, 24-28) the EC50 [1] was 0.021 nM, the EC50 [2] was 12 nM and the Ki [3] was 1.4 nM.
CC[C@H](C)[C@H](NC(=O)[C@H](Cc1ccccc1)NC(=O)[C@H](CCC(=O)O)NC(=O)[C@H](CCCCN)NC(=O)[C@H](C)NC(=O)[C@H](C)NC(=O)[C@H](CCC(N)=O)NC(=O)[C@@H]1CC(=O)NCCCC[C@H](NC(=O)[C@H](CO)NC(=O)[C@@H](NC(=O)[C@H](CC(=O)O)NC(=O)[C@H](CO)NC(=O)[C@@H](NC(=O)[C@H](Cc2ccccc2)NC(=O)[C@@H](NC(=O)CNC(=O)[C@H](CCC(=O)O)NC(=O)[C@H](C)NC(=O)[C@@H](N)Cc2cnc[nH]2)[C@@H](C)O)[C@@H](C)O)C(C)C)C(=O)N[C@@H](Cc2ccc(O)cc2)C(=O)N[C@@H](CC(C)C)C(=O)N[C@@H](CCC(=O)O)C(=O)N1)C(=O)N[C@H]1CCCCNC(=O)C[C@@H](C(=O)NCC(=O)N[C@@H](CCCNC(=N)N)C(=O)NCC(N)=O)NC(=O)[C@H](C(C)C)NC(=O)[C@H](CC(C)C)NC(=O)[C@H](Cc2c[nH]c3ccccc23)NC1=O (H-HAEGTFTSDVSKYLEDQAAKEFIKWLVDGRG-NH2; lactam 12-16, 24-28) was tested, and the EC50 [1] was 0.013 nM, the EC50 [2] was 6.7 nM and the Ki [3] was 0.94 nM.
With CC[C@H](C)[C@H](NC(=O)[C@H](Cc1ccccc1)NC(=O)[C@H](CCC(=O)O)NC(=O)[C@H](CCCCN)NC(=O)[C@H](C)NC(=O)[C@H](C)NC(=O)[C@H](CCC(N)=O)NC(=O)[C@@H]1CCC(=O)NCCCC[C@H](NC(=O)[C@H](CO)NC(=O)[C@@H](NC(=O)[C@H](CC(=O)O)NC(=O)[C@H](CO)NC(=O)[C@@H](NC(=O)[C@H](Cc2ccccc2)NC(=O)[C@@H](NC(=O)CNC(=O)[C@H](CCC(=O)O)NC(=O)[C@H](C)NC(=O)[C@@H](N)Cc2cnc[nH]2)[C@@H](C)O)[C@@H](C)O)C(C)C)C(=O)N[C@@H](Cc2ccc(O)cc2)C(=O)N[C@@H](CC(C)C)C(=O)N[C@@H](CCC(=O)O)C(=O)N1)C(=O)N[C@H]1CCCCNC(=O)C[C@@H](C(=O)NCC(=O)N[C@@H](CCCNC(=N)N)C(=O)NCC(N)=O)NC(=O)[C@H](C(C)C)NC(=O)[C@H](CC(C)C)NC(=O)[C@H](Cc2c[nH]c3ccccc23)NC1=O (H-HAEGTFTSDVSKYLEEQAAKEFIKWLVDGRG-NH2; lactam 12-16, 24-28) the EC50 [1] was 0.05 nM.
Work on CC[C@H](C)[C@H](NC(=O)[C@H](Cc1ccccc1)NC(=O)[C@H](CCC(=O)O)NC(=O)[C@H](CCCCN)NC(=O)[C@H](C)NC(=O)[C@H](C)NC(=O)[C@H](CCC(N)=O)NC(=O)[C@H](C)NC(=O)[C@H](CCC(=O)O)NC(=O)[C@H](CC(C)C)NC(=O)[C@H](Cc1ccc(O)cc1)NC(=O)[C@H](CO)NC(=O)[C@H](CO)NC(=O)[C@@H](NC(=O)[C@H](CC(=O)O)NC(=O)[C@H](CO)NC(=O)[C@@H](NC(=O)[C@H](Cc1ccccc1)NC(=O)[C@@H](NC(=O)CNC(=O)[C@H](CCC(=O)O)NC(=O)[C@H](C)NC(=O)[C@@H](N)Cc1cnc[nH]1)[C@@H](C)O)[C@@H](C)O)C(C)C)C(=O)N[C@H]1CCCCNC(=O)C[C@@H](C(=O)NCC(=O)N[C@@H](CCCNC(=N)N)C(=O)NCC(N)=O)NC(=O)[C@H](C(C)C)NC(=O)[C@H](CC(C)C)NC(=O)[C@H](Cc2c[nH]c3ccccc23)NC1=O (H-HAEGTFTSDVSSYLEAQAAKEFIKWLVDGRG-NH2; lactam 24-28) yielded an EC50 [1] of 0.02 nM, an EC50 [2] of 11 nM and a Ki [3] of 1.7 nM.
Work on CC[C@H](C)[C@H](NC(=O)[C@H](Cc1ccccc1)NC(=O)[C@H](CCC(=O)O)NC(=O)[C@H](CCCCN)NC(=O)[C@H](C)NC(=O)[C@H](C)NC(=O)[C@H](CCC(N)=O)NC(=O)[C@@H]1CCCN1C(=O)[C@H](CCC(=O)O)NC(=O)[C@H](CC(C)C)NC(=O)[C@H](Cc1ccc(O)cc1)NC(=O)[C@H](CO)NC(=O)[C@H](CO)NC(=O)[C@@H](NC(=O)[C@H](CC(=O)O)NC(=O)[C@H](CO)NC(=O)[C@@H](NC(=O)[C@H](Cc1ccccc1)NC(=O)[C@@H](NC(=O)CNC(=O)[C@H](CCC(=O)O)NC(=O)[C@H](C)NC(=O)[C@@H](N)Cc1cnc[nH]1)[C@@H](C)O)[C@@H](C)O)C(C)C)C(=O)N[C@H]1CCCCNC(=O)C[C@@H](C(=O)NCC(=O)N[C@@H](CCCNC(=N)N)C(=O)NCC(N)=O)NC(=O)[C@H](C(C)C)NC(=O)[C@H](CC(C)C)NC(=O)[C@H](Cc2c[nH]c3ccccc23)NC1=O (H-HAEGTFTSDVSSYLEPQAAKEFIKWLVDGRG-NH2; lactam 24-28) yielded an EC50 [1] of 0.35 nM, an EC50 [2] of 33 nM and a Ki [3] of 18 nM.
With CC[C@H](C)[C@H](NC(=O)[C@H](Cc1ccccc1)NC(=O)[C@H](CCC(=O)O)NC(=O)[C@H](CCCCN)NC(=O)[C@H](C)NC(=O)[C@H](C)NC(=O)[C@H](CCC(N)=O)NC(=O)[C@@H](NC(=O)[C@H](CCC(=O)O)NC(=O)[C@H](CC(C)C)NC(=O)[C@H](Cc1ccc(O)cc1)NC(=O)[C@H](CO)NC(=O)[C@H](CO)NC(=O)[C@@H](NC(=O)[C@H](CC(=O)O)NC(=O)[C@H](CO)NC(=O)[C@@H](NC(=O)[C@H](Cc1ccccc1)NC(=O)[C@@H](NC(=O)CNC(=O)[C@H](CCC(=O)O)NC(=O)[C@H](C)NC(=O)[C@@H](N)Cc1cnc[nH]1)[C@@H](C)O)[C@@H](C)O)C(C)C)C(C)C)C(=O)N[C@H]1CCCCNC(=O)C[C@@H](C(=O)NCC(=O)N[C@@H](CCCNC(=N)N)C(=O)NCC(N)=O)NC(=O)[C@H](C(C)C)NC(=O)[C@H](CC(C)C)NC(=O)[C@H](Cc2c[nH]c3ccccc23)NC1=O (H-HAEGTFTSDVSSYLEVQAAKEFIKWLVDGRG-NH2; lactam 24-28) the EC50 [1] was 0.1 nM, the EC50 [2] was 9 nM and the Ki [3] was 1.5 nM.
With CC[C@H](C)[C@H](NC(=O)[C@H](Cc1ccccc1)NC(=O)[C@H](CCC(=O)O)NC(=O)[C@H](CCCCN)NC(=O)[C@H](C)NC(=O)[C@H](C)NC(=O)[C@H](CCC(N)=O)NC(=O)[C@@H]1CCC(=O)NCCCC[C@H](NC(=O)[C@H](CO)NC(=O)[C@H](Cc2ccc(O)cc2)NC(=O)[C@H](CC(=O)O)NC(=O)[C@H](CO)NC(=O)[C@@H](NC(=O)[C@H](Cc2ccccc2)NC(=O)[C@@H](NC(=O)CNC(=O)[C@H](CCC(=O)O)NC(=O)[C@H](C)NC(=O)[C@@H](N)Cc2cnc[nH]2)[C@@H](C)O)[C@@H](C)O)C(=O)N[C@@H](Cc2ccc(O)cc2)C(=O)N[C@@H](CC(C)C)C(=O)N[C@@H](CCC(=O)O)C(=O)N1)C(=O)N[C@H]1CCCCNC(=O)C[C@@H](C(=O)NCC(=O)N[C@@H](CCCNC(=N)N)C(=O)NCC(N)=O)NC(=O)[C@H](C(C)C)NC(=O)[C@H](CC(C)C)NC(=O)[C@H](Cc2c[nH]c3ccccc23)NC1=O (H-HAEGTFTSDYSKYLEEQAAKEFIKWLVDGRG-NH2; lactam 12-16, 24-28) the EC50 [1] was 0.009 nM, the EC50 [2] was 8.8 nM and the Ki [3] was 0.82 nM.
